In assay [1] the target is T1, 5-hydroxytryptamine receptor 1A (Homo sapiens) (UniProt P08908).
T1 sequence (whole entry): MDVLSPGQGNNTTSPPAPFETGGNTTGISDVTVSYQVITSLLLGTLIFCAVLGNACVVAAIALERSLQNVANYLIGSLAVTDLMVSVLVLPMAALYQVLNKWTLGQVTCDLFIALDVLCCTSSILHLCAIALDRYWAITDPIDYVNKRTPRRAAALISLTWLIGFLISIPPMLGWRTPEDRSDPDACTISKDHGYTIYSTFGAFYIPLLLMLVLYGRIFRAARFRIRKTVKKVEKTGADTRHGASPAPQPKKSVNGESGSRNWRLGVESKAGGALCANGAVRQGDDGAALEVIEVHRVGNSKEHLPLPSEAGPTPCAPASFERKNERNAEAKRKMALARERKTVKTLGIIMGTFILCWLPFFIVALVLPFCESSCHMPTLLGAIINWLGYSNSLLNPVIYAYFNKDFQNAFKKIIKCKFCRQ
Conditions: Compound concentration 10.0 uM.

Assay [2] concerns the target T2, Muscarinic acetylcholine receptor M1 (Homo sapiens) (UniProt P11229).
T2 sequence (whole entry): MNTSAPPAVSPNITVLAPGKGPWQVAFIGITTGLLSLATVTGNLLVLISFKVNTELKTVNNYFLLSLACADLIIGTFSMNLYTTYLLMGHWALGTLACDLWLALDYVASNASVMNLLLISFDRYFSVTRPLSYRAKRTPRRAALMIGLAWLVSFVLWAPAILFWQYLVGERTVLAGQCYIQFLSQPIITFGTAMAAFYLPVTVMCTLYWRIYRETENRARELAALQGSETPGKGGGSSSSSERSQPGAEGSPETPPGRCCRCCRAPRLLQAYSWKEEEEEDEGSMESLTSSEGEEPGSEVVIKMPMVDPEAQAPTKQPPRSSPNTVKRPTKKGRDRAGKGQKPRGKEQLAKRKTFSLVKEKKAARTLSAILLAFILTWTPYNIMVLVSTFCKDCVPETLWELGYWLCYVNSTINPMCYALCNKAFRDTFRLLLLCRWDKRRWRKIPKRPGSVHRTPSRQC
Conditions: Compound concentration 10.0 uM.

Assay [3] is filed under the species Rattus norvegicus. Kind of assay: Testosterone Eurofins-Panlabs radioligand binding assay. As to conditions: Compound concentration 10.0 uM. More on the design: ligand concentration 1.5 nM.
Assay [4] concerns the target Sigma intracellular receptor 2 (Homo sapiens, UniProt Q5BJF2). As to the kind of experiment: GPCRScan assay: inhibition of Sigma 2. Further details: radioligand conc. used [nm] 5.0, parental cells HEKT.
For assay [5], the target named is Muscarinic acetylcholine receptor M3 (Homo sapiens) (UniProt P20309). Conditions: Compound concentration 10.0 uM.
The species named for assay [6] is Homo sapiens. Kind of assay: Inhibition of Nicotinic Acetylcholine at compound concentration of 10.0 uM in the Eurofins-Panlabs radioligand binding assay (Eurofins_assay_258590). Type of assay: protein-complex assay. Conditions: Compound concentration 10.0 uM.
The target in assay [7] is Glutamate NMDA receptor (Rattus norvegicus) (UniProt P35439+Q00959+Q00960+Q00961+Q62645+Q8VHN2+Q9R1M7). Conditions: Compound concentration 10.0 uM.
Assay [8] has as its target Kappa-type opioid receptor (Homo sapiens) (UniProt P41145). Conditions: Compound concentration 10.0 uM.
Assay [9] is filed under the species Rattus norvegicus. Kind of assay: Inhibition of Imidazoline I2, Central at 10 µM in the Eurofins-Panlabs radioligand binding assay (Eurofins_assay_241000). As to conditions: Compound concentration 10.0 uM. Further details: ligand concentration 2 nM.
In assay [10] the target is Neuropeptide Y receptor type 2 (Homo sapiens) (UniProt P49146). Kind of assay: Inhibition of Neuropeptide Y Y2 at 10 µM in the Eurofins-Panlabs radioligand binding assay (Eurofins_assay_257110). As to conditions: Compound concentration 10.0 uM.
The species named for assay [11] is Rattus norvegicus. Kind of assay: Inhibition of Thyroid Hormone at 10 µM in the Eurofins-Panlabs radioligand binding assay (Eurofins_assay_285900). Type of assay: protein assay. As to conditions: Compound concentration 10.0 uM.
For assay [12], the target named is T3, Alpha-2A adrenergic receptor (Homo sapiens) (UniProt P08913).
T3 sequence (whole entry): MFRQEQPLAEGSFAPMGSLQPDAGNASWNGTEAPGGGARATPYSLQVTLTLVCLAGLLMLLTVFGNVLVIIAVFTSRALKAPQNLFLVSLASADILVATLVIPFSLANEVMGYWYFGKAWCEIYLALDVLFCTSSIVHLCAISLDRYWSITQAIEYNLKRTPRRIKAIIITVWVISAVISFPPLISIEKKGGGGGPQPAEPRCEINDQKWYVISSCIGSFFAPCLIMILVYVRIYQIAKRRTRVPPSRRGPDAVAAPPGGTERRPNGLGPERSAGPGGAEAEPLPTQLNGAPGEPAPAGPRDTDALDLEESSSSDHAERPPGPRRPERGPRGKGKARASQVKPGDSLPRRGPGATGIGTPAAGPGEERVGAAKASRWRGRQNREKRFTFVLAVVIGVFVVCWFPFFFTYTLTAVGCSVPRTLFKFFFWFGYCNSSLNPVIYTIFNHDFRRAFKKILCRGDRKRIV
Kind of assay: Adrenergic alpha2A Eurofins-Panlabs radioligand binding assay. Further details: ligand concentration 1 nM, non-specific ligand with concentration 10 µM WB-4101, incubation time 60 min, incubation temperature 25 °C. Conditions: Compound concentration 10.0 uM.

Assay [13] deals with Histamine H1 receptor (Homo sapiens) (UniProt P35367). Conditions: Compound concentration 10.0 uM.
Assay [14] has as its target Acetylcholine receptor subunit alpha (Homo sapiens) (UniProt P02708). Kind of assay: Inhibition of Nicotinic Acetylcholine […], Bungarotoxin at 10 µM in the Eurofins-Panlabs radioligand binding assay (Eurofins_assay_258700). Conditions: Compound concentration 10.0 uM.
Assay [15] has as its target Sodium-dependent noradrenaline transporter (Homo sapiens) (UniProt P23975). As to conditions: Compound concentration 10.0 uM.
In assay [16] the target is ATP-sensitive inward rectifier potassium channel 11 (Cricetulus griseus) (UniProt A0A3L7HHE1). As to the kind of experiment: Inhibition of Potassium Channel [KATP] at 10 µM in the Eurofins-Panlabs radioligand binding assay (Eurofins_assay_265600). As to conditions: Cricetinae; Compound concentration 10.0 uM.
Assay [17] has as its target T4, Muscarinic acetylcholine receptor M4 (Homo sapiens) (UniProt P08173).
T4 sequence (whole entry): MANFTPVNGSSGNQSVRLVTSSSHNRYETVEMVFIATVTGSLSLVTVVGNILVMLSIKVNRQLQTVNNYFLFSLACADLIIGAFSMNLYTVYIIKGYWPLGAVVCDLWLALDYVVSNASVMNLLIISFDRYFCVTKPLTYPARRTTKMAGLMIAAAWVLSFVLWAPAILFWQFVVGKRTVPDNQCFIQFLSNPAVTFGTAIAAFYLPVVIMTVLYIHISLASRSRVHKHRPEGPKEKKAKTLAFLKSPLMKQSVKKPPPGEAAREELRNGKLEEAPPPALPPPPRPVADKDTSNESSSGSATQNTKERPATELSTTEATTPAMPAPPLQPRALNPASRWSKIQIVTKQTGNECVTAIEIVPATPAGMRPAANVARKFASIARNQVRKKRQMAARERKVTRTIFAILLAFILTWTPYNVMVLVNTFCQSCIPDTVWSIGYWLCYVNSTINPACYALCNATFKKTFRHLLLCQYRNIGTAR
Conditions: Compound concentration 10.0 uM.

For assay [18], the target named is Beta-3 adrenergic receptor (Homo sapiens) (UniProt P13945). As to conditions: Compound concentration 10.0 uM.
The target of assay [19] is Mu-type opioid receptor (Homo sapiens) (UniProt P35372). As to the kind of experiment: mu (MOP) (h) Eurofins-Cerep Cellular and Nuclear Receptor Functional Assays. As to conditions: Compound concentration 10.0 uM.
Mu-type opioid receptor (Homo sapiens), sequence (P35372 whole entry): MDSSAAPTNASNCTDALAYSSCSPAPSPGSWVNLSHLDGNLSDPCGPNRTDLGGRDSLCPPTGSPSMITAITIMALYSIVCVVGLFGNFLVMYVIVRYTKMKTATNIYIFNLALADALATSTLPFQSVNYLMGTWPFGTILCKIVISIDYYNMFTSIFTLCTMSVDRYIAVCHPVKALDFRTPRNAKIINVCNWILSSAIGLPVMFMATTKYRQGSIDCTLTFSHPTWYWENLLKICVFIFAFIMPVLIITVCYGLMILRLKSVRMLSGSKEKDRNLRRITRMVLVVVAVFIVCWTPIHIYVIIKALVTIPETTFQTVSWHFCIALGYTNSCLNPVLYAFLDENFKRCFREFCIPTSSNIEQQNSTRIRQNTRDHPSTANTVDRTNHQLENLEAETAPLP

Sigma intracellular receptor 2, sequence (Q5BJF2 whole entry): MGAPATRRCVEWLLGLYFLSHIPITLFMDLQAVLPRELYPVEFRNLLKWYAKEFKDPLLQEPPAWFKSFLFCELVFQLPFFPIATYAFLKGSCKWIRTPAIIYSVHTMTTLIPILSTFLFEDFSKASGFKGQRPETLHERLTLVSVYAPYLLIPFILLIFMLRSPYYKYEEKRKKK
ATP-sensitive inward rectifier potassium channel 11 (Cricetulus griseus), sequence (A0A3L7HHE1 as listed by the source): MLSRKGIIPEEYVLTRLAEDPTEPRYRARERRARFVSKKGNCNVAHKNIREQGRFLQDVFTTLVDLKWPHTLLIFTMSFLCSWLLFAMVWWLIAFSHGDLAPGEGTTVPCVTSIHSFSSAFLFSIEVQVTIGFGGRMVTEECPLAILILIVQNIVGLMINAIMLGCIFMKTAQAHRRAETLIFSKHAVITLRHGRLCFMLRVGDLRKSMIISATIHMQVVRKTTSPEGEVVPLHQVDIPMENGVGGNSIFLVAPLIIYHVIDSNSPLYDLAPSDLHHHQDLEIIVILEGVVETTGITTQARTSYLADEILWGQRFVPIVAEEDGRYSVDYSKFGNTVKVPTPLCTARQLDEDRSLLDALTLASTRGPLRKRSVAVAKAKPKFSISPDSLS
Sodium-dependent noradrenaline transporter (Homo sapiens), sequence (P23975 whole entry): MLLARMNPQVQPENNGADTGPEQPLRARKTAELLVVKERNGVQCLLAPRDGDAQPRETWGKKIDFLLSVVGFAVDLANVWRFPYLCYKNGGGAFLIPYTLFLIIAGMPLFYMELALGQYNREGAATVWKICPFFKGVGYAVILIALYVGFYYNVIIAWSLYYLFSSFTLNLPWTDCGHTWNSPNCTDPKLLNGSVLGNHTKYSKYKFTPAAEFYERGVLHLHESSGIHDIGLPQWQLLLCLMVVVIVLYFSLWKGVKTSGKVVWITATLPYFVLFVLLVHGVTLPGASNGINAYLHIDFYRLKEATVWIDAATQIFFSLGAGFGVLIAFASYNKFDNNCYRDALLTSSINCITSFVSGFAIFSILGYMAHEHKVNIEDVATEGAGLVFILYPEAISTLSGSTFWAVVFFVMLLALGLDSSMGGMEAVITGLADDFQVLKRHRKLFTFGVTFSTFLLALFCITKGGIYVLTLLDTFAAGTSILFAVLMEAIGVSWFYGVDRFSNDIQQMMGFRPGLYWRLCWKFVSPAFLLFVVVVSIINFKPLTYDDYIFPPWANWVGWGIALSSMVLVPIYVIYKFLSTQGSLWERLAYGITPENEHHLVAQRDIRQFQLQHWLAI
Beta-3 adrenergic receptor (Homo sapiens), sequence (P13945 whole entry, looked up): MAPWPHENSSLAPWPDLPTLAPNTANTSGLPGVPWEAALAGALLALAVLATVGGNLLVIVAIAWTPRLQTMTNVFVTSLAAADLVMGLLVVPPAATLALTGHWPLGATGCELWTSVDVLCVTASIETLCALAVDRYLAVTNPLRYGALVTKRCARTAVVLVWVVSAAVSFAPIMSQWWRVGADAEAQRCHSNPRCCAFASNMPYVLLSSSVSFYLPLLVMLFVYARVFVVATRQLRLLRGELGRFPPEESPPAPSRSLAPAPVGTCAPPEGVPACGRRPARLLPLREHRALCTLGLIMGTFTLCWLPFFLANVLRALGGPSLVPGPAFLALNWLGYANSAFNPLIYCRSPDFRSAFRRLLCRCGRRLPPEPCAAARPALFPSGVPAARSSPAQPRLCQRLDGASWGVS
Kappa-type opioid receptor (Homo sapiens), sequence (P41145 whole entry): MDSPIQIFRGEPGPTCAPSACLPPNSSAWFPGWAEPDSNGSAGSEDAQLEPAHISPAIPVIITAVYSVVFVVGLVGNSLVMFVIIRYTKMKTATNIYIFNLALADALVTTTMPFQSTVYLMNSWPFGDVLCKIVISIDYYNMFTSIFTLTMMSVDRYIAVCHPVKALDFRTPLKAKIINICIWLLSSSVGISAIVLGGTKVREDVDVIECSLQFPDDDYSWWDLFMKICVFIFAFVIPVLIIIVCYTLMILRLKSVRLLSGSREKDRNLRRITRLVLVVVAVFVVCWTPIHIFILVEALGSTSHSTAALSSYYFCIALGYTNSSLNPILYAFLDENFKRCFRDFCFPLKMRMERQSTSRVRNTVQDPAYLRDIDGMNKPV
Acetylcholine receptor subunit alpha (Homo sapiens), sequence (P02708 whole entry): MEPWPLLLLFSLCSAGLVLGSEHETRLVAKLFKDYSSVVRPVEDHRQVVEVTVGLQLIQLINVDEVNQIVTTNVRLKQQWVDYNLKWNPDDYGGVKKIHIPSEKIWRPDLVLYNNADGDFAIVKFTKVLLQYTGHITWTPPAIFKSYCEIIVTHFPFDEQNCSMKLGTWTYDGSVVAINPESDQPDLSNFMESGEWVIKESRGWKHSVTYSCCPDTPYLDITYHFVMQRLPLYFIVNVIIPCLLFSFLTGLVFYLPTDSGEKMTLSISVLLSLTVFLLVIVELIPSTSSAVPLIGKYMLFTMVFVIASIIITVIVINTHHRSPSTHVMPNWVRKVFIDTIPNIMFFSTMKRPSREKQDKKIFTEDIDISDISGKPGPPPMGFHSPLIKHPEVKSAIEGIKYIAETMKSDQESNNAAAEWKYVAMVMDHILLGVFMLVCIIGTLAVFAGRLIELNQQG
Muscarinic acetylcholine receptor M3 (Homo sapiens), sequence (P20309 whole entry, looked up): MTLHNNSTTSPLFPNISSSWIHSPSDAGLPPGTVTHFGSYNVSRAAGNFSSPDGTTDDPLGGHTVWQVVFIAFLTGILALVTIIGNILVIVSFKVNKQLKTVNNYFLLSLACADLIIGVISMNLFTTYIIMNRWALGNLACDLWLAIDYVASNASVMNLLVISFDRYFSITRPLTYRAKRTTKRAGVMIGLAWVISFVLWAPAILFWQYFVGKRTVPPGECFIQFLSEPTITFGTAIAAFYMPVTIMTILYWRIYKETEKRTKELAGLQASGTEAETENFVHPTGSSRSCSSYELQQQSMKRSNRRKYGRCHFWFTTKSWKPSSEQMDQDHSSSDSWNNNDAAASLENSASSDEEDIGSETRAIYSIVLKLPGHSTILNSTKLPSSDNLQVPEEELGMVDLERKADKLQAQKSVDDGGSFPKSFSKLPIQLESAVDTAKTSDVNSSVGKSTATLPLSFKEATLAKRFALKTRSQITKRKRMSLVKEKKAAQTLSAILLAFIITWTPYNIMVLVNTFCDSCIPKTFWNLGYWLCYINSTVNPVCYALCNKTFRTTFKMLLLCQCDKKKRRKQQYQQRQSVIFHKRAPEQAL
Neuropeptide Y receptor type 2 (Homo sapiens), sequence (P49146 whole entry): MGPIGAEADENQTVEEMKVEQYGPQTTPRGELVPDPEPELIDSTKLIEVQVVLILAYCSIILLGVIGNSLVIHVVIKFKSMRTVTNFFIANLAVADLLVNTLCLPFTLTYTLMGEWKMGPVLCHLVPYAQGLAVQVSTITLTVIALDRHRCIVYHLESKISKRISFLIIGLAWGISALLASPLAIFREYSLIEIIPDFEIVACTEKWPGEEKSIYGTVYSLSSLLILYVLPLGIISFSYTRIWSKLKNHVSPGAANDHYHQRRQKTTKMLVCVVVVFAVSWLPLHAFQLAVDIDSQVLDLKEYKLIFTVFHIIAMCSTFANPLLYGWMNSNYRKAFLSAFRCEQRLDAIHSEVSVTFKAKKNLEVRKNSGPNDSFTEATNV
Histamine H1 receptor (Homo sapiens), sequence (P35367 whole entry): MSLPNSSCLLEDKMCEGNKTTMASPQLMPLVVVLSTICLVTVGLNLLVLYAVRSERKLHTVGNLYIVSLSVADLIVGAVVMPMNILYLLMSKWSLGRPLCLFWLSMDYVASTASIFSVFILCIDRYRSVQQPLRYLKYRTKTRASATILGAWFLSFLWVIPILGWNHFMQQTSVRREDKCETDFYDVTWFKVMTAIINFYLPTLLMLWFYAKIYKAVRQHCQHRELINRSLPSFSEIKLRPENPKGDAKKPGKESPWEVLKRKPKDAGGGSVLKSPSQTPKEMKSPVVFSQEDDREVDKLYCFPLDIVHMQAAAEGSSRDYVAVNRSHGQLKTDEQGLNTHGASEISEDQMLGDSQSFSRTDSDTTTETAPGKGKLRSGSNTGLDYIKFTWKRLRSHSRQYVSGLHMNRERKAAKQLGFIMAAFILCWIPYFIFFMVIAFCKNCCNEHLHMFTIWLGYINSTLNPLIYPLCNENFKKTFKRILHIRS

The inhibition is the change of the read-out against control, counted positive when it falls. As to `O=C(N1CCS(=O)(=O)CC1)N1C[C@H](c2ccc(OC(F)(F)F)cc2)C[C@H](c2nc(C3CC3)no2)C1` [BAY-386], the inhibition was -9% in assay [1]; -3% in assay [2]; 11% in [3]; -2% in [5]; -4% in assay [6]; -2% in [7]. The inhibition was -3% in [8]; 0% in assay [9]; 2% in [10]; 11% in assay [11]; 8% in assay [12]; 0% in assay [13]. Moreover, the inhibition in assay [14] is -2%; in assay [15], 17%; in [16], 4%. The Ki in [4] (read-out: Ki) is 1.2 µM; in assay [4] (read-out: pKi (converted)), 1.15 µM.
For `Cc1noc([C@H]2C[C@@H](c3ccc(C(F)(F)F)cc3)CN(C(=O)N3CCS(=O)(=O)C3)C2)n1` [BAY-448], the inhibition in [17] is -0.58%. In addition, the inhibition in assay [18] is 19.3%. In assay [19], the % Inhibition of Control Agonist Response (Mean n=2) was -4.8% and the % of Control Agonist Response (Mean n=2) turned out to be 36%.

The record behind these values is ChEMBL document CHEMBL4507269, “Data for DCP probe BAY-386” (2021).
